Data as given in PubChem BioAssay (NCI).
Several values for one entry are separate records, joined by “and”; a condition that tells them apart may be missing. Identical values can stand only once.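 Compound exposure: 48 hours, 5 concentrations, 96-well plates. Abbreviation: GI50, concentration required for 50% inhibition of growth. TGI denotes the concentration required for complete inhibition of growth.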

Columns and labels:
Experiment in all cases: growth of human tumour cells (NCI), 48 h
[1] = system: MOLT-4 leukemia
[2] = system: HT29 colon
[3] = system: OVCAR-5 ovarian
[4] = system: K-562 leukemia
[5] = system: DU-145 prostate
[6] = system: 786-0 renal
[7] = system: ACHN renal
[8] = system: OVCAR-8 ovarian
[9] = system: A498 renal
[10] = system: OVCAR-4 ovarian
[11] = system: SK-OV-3 ovarian
[12] = system: U251 CNS
[13] = system: SF-539 CNS
[14] = system: NCI-H226 lung
[15] = system: SK-MEL-2 melanoma
[16] = system: HS 578T breast
[17] = system: SF-268 CNS
[18] = system: SW-620 colon
[19] = system: HCC-2998 colon

SMILES | TGI [1] [µM] | TGI [2] [µM] | TGI [3] [µM] | TGI [4] [µM] | TGI [5] [µM] | TGI [6] [µM] | TGI [7] [µM] | TGI [8] [µM] | TGI [9] [µM] | TGI [10] [µM] | TGI [11] [µM] | TGI [12] [µM] | TGI [13] [µM] | TGI [14] [µM] | TGI [15] [µM] | TGI [16] [µM] | TGI [17] [µM] | TGI [18] [µM] | TGI [19] [µM] | GI50 [16]
Cc1ccc(-n2cnc3c(N/N=C4\SCC(=O)N4c4ccccc4)ncnc32)cc1 | 5.48 | 15 | 25.4 | > 100 | 17.5 | 12.1 | 18.6 | 11.8 | 27.2 | 21.2 | 27.7 | 16.2 | 3.71 | 20.4 | 8.42 | 26.6 | 19.7 | 16.5 |  | 
NC1CNC(=O)c2cscc21 (stereo not drawn) | > 100 | > 100 | > 100 | > 100 | > 100 | > 100 | > 100 |  | > 100 | > 100 |  | > 100 |  |  |  | > 100 | > 100 | > 100 | > 100 | 
Cc1cc(C)c(C)c(-n2[nH]c(=O)n(C)c2=O)c1C | > 100 | > 100 | > 100 | > 100 | > 100 | > 100 | > 100 | > 100 | > 100 |  | > 100 | > 100 | > 100 | > 100 | > 100 | > 100 | > 100 | > 100 |  | 
NC(N)=NC(N)=Nc1c(F)c(F)c(F)c(F)c1F |  | > 100 | > 100 | > 100 | > 100 | > 100 | > 100 | > 100 | > 100 | > 100 | > 100 | > 100 | > 100 | > 100 | > 100 | > 100 | > 100 | > 100 |  | 
COc1ccc(-c2c(C#N)c(S)n(C3OC(CO)C(O)C(O)C3O)c(=O)c2C#N)cc1 (stereo not drawn) | > 100 | > 100 | > 100 | > 100 | > 100 | > 100 | > 100 | > 100 | > 100 |  | > 100 |  | > 100 | > 100 | > 100 | > 100 | > 100 | > 100 | > 100 | 37.3 µM and > 100 µM
Nc1ccc(S(=O)(=O)c2ccc(NC(=O)c3cccnc3)cc2)cc1 | > 100 | > 100 | > 100 | > 100 | > 100 | > 100 | > 100 | > 100 | > 100 | > 100 | > 100 | > 100 |  | > 100 |  | > 100 | > 100 | > 100 | > 100 | 
CCCCCCCCCCCC1N=C(N)NC(CCCO)=C1C(=O)OC (stereo not drawn) | 4.75 | 3.05 | 16.6 | 4.49 | 34.6 |  | 17.3 | 6.25 | 41.6 | 9.15 | 8.12 |  | 33.2 | 32 |  | 3.39 | 5.81 |  | 5.02 | 
COc1ccc(C2NC3=C(CCCC3)C3(C#N)C(=O)N=C(N)C23C#N)cc1 (stereo not drawn) | > 100 | > 100 | > 100 | > 100 | > 100 | > 100 | > 100 | > 100 | > 100 | > 100 | > 100 | > 100 |  | > 100 | > 100 | > 100 | > 100 | > 100 | > 100 | 
Cc1ccc(NC(=O)CC(=O)n2nc(C)c(N=Nc3ccc(S(=O)(=O)CCOS(=O)(=O)O)cc3)c2C)cc1 | > 100 | > 100 | > 100 | > 100 | > 100 | > 100 | > 100 | > 100 | > 100 |  | > 100 | > 100 | > 100 | > 100 | > 100 | > 100 | > 100 | > 100 | > 100 | 
Cn1c(COC(=O)NC2CCCCC2)c(COC(=O)NC2CCCCC2)c2ccc3cc(Cl)c(Cl)cc3c21 | 54.4 | 69.3 | 34.5 | 15.7 | 84.7 | 30.3 | 32.3 | > 100 | 25.9 |  | > 100 |  | 42.1 | > 100 | 28.5 | 23.6 | 24.5 | 32.8 | 26.6 | 
Cc1cc(C2(c3cc(C)c(O)c(C(=O)O)c3)OS(=O)(=O)c3ccccc32)cc(C(=O)O)c1O | > 100 | > 100 | > 100 | > 100 | > 100 | > 100 | > 100 | > 100 | > 100 | > 100 | > 100 | > 100 | > 100 | > 100 | > 100 | > 100 | > 100 | > 100 |  | 
O=C1CCC[C@H]2O[C@@H](COCc3ccccc3)C[C@@H]12 | > 100 | > 100 | > 100 | > 100 | > 100 | > 100 | > 100 | > 100 | > 100 | > 100 | > 100 | > 100 | > 100 | > 100 | > 100 | > 100 | > 100 | > 100 |  | 
N#Cc1c2c([nH]c(=O)c1C#N)CCCC2 | > 100 | > 100 | > 100 | > 100 | > 100 | > 100 | > 100 | > 100 | > 100 |  | > 100 | > 100 | > 100 | > 100 | > 100 | > 100 | > 100 | > 100 | > 100 | 
